Test results taken from patent US20220112479A1, “COMPOUNDS STABILIZING AMYLASES IN LIQUIDS” (BASF SE, priority 2018, published 2022).

What was measured:
Amylase = assay: amylase storage stability in liquid laundry formulation (pNP release from Ethyliden-blocked-pNPG7); type: biochemical; design: key: % of activity in reference formulation at time 0; conditions: 2.5 wt % component (a), storage at 37° C.
Procedure: The storage stability of amylase was assessed at 37° C.
Base test formulations were manufactured by making base formulations VI to IX by mixing the components according to Table 4.
Amylase activity at certain points in time as indicated in Table 5 was measured quantitatively by the release of the chromophore para-nitrophenol (pNP) from the substrate (Ethyliden-blocked-pNPG7, Roche Applied Science 10880078103). The alpha-amylase degrades the substrate into smaller molecules and α-glucosidase (Roche Applied Science 11626329103), which is present in excess compared to the amylase, process these smaller products until pNP is released; the release of pNP, measured via an increase of absorption at 405 nm, is directly proportional to the amylase activity of the sample. Amylase standard: Termamyl 120 L (Sigma 3403).
The amylolytic activity values provided were calculated referring to the value determined in the reference formulation at the time 0.
The nomenclature of formulations is as follows: the Roman number before the full stop characterizes the base formulation, the Arabian number the type of compound (A.# compound according to invention (component (a)); B.# comparative compound).

Savinase Ultra 16.0L = target: T1, Savinase Ultra 16.0L (Lederbergia lenta, UniProt P29600); assay: protease storage stability in liquid formulation (Suc-AAPF-pNA substrate); type: biochemical; conditions: 1.5 wt % component (a), storage at 37° C.
T1 construct: purchased Sigma-Aldrich
T1 sequence (P29600 1-269): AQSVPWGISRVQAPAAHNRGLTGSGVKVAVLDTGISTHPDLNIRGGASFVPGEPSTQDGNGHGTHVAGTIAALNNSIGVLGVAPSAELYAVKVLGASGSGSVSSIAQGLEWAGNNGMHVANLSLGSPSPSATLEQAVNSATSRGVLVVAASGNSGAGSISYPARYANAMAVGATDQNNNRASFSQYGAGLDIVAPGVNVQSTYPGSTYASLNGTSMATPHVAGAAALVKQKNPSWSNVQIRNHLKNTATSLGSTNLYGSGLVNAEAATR
Procedure: Base test formulations were manufactured by making base formulations I to V by mixing the components according to Table 1.
Protease used: (S) Savinase Ultra 16.0L (CAS-No. 9014-01-1, EC-No. 232-752-2) was purchased from Sigma-Aldrich
The respective component (a) or comparative compound was added, if applicable, to the respective base formulation in amounts as indicated in Table 1.
The amount of protease as provided in Table 1 refers to active protein.
Water was added to accomplish the balance to 100.
Protease activity at certain points in time as indicated in Table 3 was be determined by employing Succinyl-Ala-Ala-Pro-Phe-p-nitroanilide (Suc-AAPF-pNA, short AAPF) as substrate. pNA is cleaved from the substrate molecule by proteolytic cleavage, resulting in release of yellow color of free pNA which was determined by measuring […]. Measurements were done at 20° C.
The proteolytic activity values provided in Table 3 were calculated referring to the value determined in the reference formulation at the time 0.
The nomenclature of formulations is as follows: the Roman number before the full stop characterizes the base formulation, the Arabian number the type of salt (A.#inventive salt (component (a)); B.# comparative compound). Zero (“0”): no salt, but diethylene glycol.

## CCOC(=O)CC(CC(=O)OCC)(OC(C)=O)C(=O)OCC [A.5, Acetyltriethylcitrate]
Amylase; laundry base formulation IX. (2.5 DTPA), 3 d
  amylase activity, referring to reference formulation at time 0: 91
Amylase; laundry base formulation IX. (2.5 DTPA), 7 d
  amylase activity, referring to reference formulation at time 0: 78
Amylase; laundry base formulation IX. (2.5 DTPA), 14 d
  amylase activity, referring to reference formulation at time 0: 69
Amylase; laundry base formulation IX. (2.5 DTPA), 21 d
  amylase activity, referring to reference formulation at time 0: 61
Amylase; laundry base formulation IX. (2.5 DTPA), 28 d
  amylase activity, referring to reference formulation at time 0: 53
Amylase; laundry base formulation IX. (2.5 DTPA), T0
  amylase activity, referring to reference formulation at time 0: 98
Amylase; laundry base formulation VII. (2.0 EDTA), 3 d
  amylase activity, referring to reference formulation at time 0: 92
Amylase; laundry base formulation VII. (2.0 EDTA), 7 d
  amylase activity, referring to reference formulation at time 0: 81
Amylase; laundry base formulation VII. (2.0 EDTA), 14 d
  amylase activity, referring to reference formulation at time 0: 72
Amylase; laundry base formulation VII. (2.0 EDTA), 21 d
  amylase activity, referring to reference formulation at time 0: 66
Amylase; laundry base formulation VII. (2.0 EDTA), 28 d
  amylase activity, referring to reference formulation at time 0: 61
Amylase; laundry base formulation VII. (2.0 EDTA), T0
  amylase activity, referring to reference formulation at time 0: 98
Amylase; laundry base formulation VIII. (2.5 DTPA, no Savinase), 3 d
  amylase activity, referring to reference formulation at time 0: 93
Amylase; laundry base formulation VIII. (2.5 DTPA, no Savinase), 7 d
  amylase activity, referring to reference formulation at time 0: 83
Amylase; laundry base formulation VIII. (2.5 DTPA, no Savinase), 14 d
  amylase activity, referring to reference formulation at time 0: 74
Amylase; laundry base formulation VIII. (2.5 DTPA, no Savinase), 21 d
  amylase activity, referring to reference formulation at time 0: 67
Amylase; laundry base formulation VIII. (2.5 DTPA, no Savinase), 28 d
  amylase activity, referring to reference formulation at time 0: 64
Amylase; laundry base formulation VIII. (2.5 DTPA, no Savinase), T0
  amylase activity, referring to reference formulation at time 0: 100
Savinase Ultra 16.0L; base formulation I., 3 d
  protease activity, referring to reference formulation at time 0: 96
Savinase Ultra 16.0L; base formulation I., 7 d
  protease activity, referring to reference formulation at time 0: 90
Savinase Ultra 16.0L; base formulation I., 14 d
  protease activity, referring to reference formulation at time 0: 84
Savinase Ultra 16.0L; base formulation I., 21 d
  protease activity, referring to reference formulation at time 0: 80
Savinase Ultra 16.0L; base formulation I., 28 d
  protease activity, referring to reference formulation at time 0: 76
Savinase Ultra 16.0L; base formulation I., 42 d
  protease activity, referring to reference formulation at time 0: 62
Savinase Ultra 16.0L; base formulation I., T0
  protease activity, referring to reference formulation at time 0: 98
Savinase Ultra 16.0L; base formulation III., 3 d
  protease activity, referring to reference formulation at time 0: 98
Savinase Ultra 16.0L; base formulation III., 7 d
  protease activity, referring to reference formulation at time 0: 92
Savinase Ultra 16.0L; base formulation III., 14 d
  protease activity, referring to reference formulation at time 0: 83
Savinase Ultra 16.0L; base formulation III., 21 d
  protease activity, referring to reference formulation at time 0: 79
Savinase Ultra 16.0L; base formulation III., 28 d
  protease activity, referring to reference formulation at time 0: 71
Savinase Ultra 16.0L; base formulation III., 42 d
  protease activity, referring to reference formulation at time 0: 65
Savinase Ultra 16.0L; base formulation III., T0
  protease activity, referring to reference formulation at time 0: 100
